Literature values as cited in patent US20040018260A1, “Novel botanical extract of Tripterygium Wilfordii Hook F” (Novemed Group Limited, priority 2002, published 2004).
“Also recorded” adds a separate entry of the source.

Assays:
[1] = in vitro and animal experiments; results called inconclusive
[2] = in vitro and animal experiments; results called inconclusive; remark: listed apart in the source
[3] = reported

Row | SMILES | anti-inflammatory activity [1] | immunosuppressive activity [2] | carcinogenic or mutagenic [3]
1 | CC(C)[C@]1(O)[C@H](O)[C@@H]2O[C@]23[C@]2(O[C@H]2C[C@H]2C4=C(CC[C@@]23C)C(=O)OC4)[C@@H]1O [T11, tripriolide] | highest anti-inflammatory activity | little immunosuppressive activity | 
2 | CC(C)[C@]12O[C@H]1[C@@H]1O[C@]13[C@]1(O[C@H]1C[C@H]1C4=C(CC[C@@]13C)C(=O)OC4)[C@@H]2O [T10, triptolide] | most abundant and active compound | most abundant and active compound | potently carcinogenic or mutagenic; also recorded: carcinogenic
3 | CC(C)[C@]12O[C@H]1[C@@H]1O[C@@]13[C@@]1(C)CCC4=C(COC4=O)[C@@H]1C[C@@H]1O[C@@]13C2=O [T7, Triptonide] | relatively low activities | relatively low activities | 
